According to US9102636B2, “Analgesic compounds, compositions, and uses thereof” (Galleon Pharmaceuticals, Inc., priority 2010, dated 2015):
Values joined by “and” are separate entries in the source; they are usually repeats but may differ in a detail not shown here. Equal values may be shown once. “Also recorded” adds a separate entry of the source.

Columns and labels:
[1] = test system: hyperalgesia caused by SIN-1; experiment: Hyperalgesia caused by SIN-1; format: in vivo; details: rat; IV 15 minutes before first SIN-1 (1 mg/kg); FIG. 11
Experimental: Vehicle or compound 2 was given IV 15 minutes before the first administration of SIN-1 (1 mg/kg).

[2] = test system: Carrageenan-induced edema; experiment: Carrageenan-induced edema (paw volume); format: in vivo, rat
Experimental: The effect of Compound 2 in the rat carrageenan model of acute inflammatory pain was evaluated. The intraplantar carrageenan model of acute inflammatory pain in the rat results in behaviors similar to that observed in patients and has been widely used to assess novel pharmacological treatments (Whiteside et al., 2005, J. Pharmacol. Exp. Ther. 314:1234-1240). The objective of this study was to evaluate the ability of Compound 2 to reverse or prevent development of thermal hyperalgesia and edema in the rat carrageenan model of acute inflammatory pain. The positive control was indomethacin (Sigma, St. Louis), and the negative control was vehicle (0.5% methyl cellulose). […] The Hargreaves apparatus was obtained from Ugo Basile, Italy, and the lamba-carrageenan was obtained from Sigma, St. Louis. For this assay, paw withdrawal latency to a thermal stimulus was assessed using a radiant heat source (Ugo Basile, Italy) aimed at the plantar surface of the left hind paw (Hargreaves test). […] Paw volume was measured by displacement of water and assuming a tissue density equal to that of water. Baseline latencies were taken prior to carrageenan administration and re-assessed 4 h later. […] Indomethacin (positive control, 30 mg/kg p.o.) was administered prior to carrageenan and behavior assessed 4 hrs post-carrageenan. […] After induction of anesthesia, the injection site was prepared in a sterile manner and 50 μl of a 2% Jamba-carrageenan was injected. After injection, animals were weighed and allowed to recover before being returned to their home cages. Statistical significance was determined on untransformed data using a two-way analysis of variance (Graphpad Prism, NC). Significant main effects were analyzed further by subsequent Bonferronni post-hoc test. The level of significance was set at p<0.05. Data are shown as mean±S.E.M. (with an asterisk to denote significance as compared to vehicle treated controls).

[3] = test system: FCA induced thermal hyperalgesia; experiment: FCA induced thermal hyperalgesia (Hargreaves); format: in vivo, rat; details: for Paw withdrawal latency: individual rats, FIG. 18A
Experimental: Compound 2 was evaluated in the rat Freund's complete adjuvant (FCA) model of inflammatory pain. The rat Freund's complete adjuvant (FCA) intraplantar model of inflammatory pain produces behaviors similar to those observed in patients and has been widely used to assess novel pharmacological treatments (Lam et al., 2008, J Ethnopharmacol. 120:44-50). The positive control was celecoxib (TRC, Montreal), and the negative control was vehicle (0.5% methyl cellulose, in phosphate buffered saline). […] The Hargreaves apparatus was obtained from Ugo Basile, Italy. The Freund's complete adjuvant was obtained from Sigma, St. Louis, and the electronic von frey was obtained from Stoelting, Ill. For this assay, paw withdrawal latency to a thermal stimulus was assessed using a radiant heat source (Ugo Basile, Italy) aimed at the plantar surface of the left hind paw (Hargreaves test; […] Paw withdrawal thresholds to a non-noxious tactile stimulus was assessed using an electronic von Frey apparatus that presented an increasing mechanical force to the plantar surface of the hind paw. Paw volume was measured by displacement of water and assuming a tissue density equal to that of water. […] Celecoxib (30 mg/kg p.o.) served as the positive control. […] After induction of anesthesia, the injection site was prepared in a sterile manner and 100 μl of a 50% suspension of FCA injected. After injection, animals were weighed and allowed to recover before being returned to their home cages. Statistical significance was determined on untransformed data using a two-way analysis of variance (Graphpad Prism, NC). Significant main effects were analyzed further by subsequent Bonferronni post-hoc test. The level of significance was set at p<0.05. Data are shown as mean±S.E.M. (with an asterisk to denote significance as compared to vehicle treated controls).

ataxia (rotarod) = experiment: Accelerating rotarod assay of ataxia (latency to fall); format: in vivo, rat; details: for Latency to fall: maximum 300 seconds, individual animals
Experimental: Compound 2 was evaluated in a rat accelerating rotarod model of ataxia. Ataxia is a common clinical problem with CNS-active compounds and can often confound interpretation of efficacy in preclinical pain models. The rotarod assay of ataxia has been widely used to assess the side-effect liability of novel pharmacological treatments (Jones & Roberts, 1968, J. Pharm. […] The positive control was haloperidol (Sigma, St. […] Male Sprague-Dawley Rats (Harlan, Ill.) were 250-300 g at time of dosing. Rotarod was obtained from IITC, CA. To examine the potential effects of Compound 2 on motor performance, rats were tested on an accelerating rotarod (IITC, Ca). […] Rats received two timed training trials (averaged to give the reported baseline) on the first day, then 24 hr later rats were administered Compound 2 (30, 100 and 300 mg/kg, p.o.), haloperidol (3 mg/kg, p.o.), the positive control, or vehicle. […] Statistical significance was determined on untransformed data using a two-way analysis of variance (Graphpad Prism, NC). Significant main effects were analyzed further by subsequent Bonferronni post-hoc test. The level of significance was set at p<0.05. Data are shown as mean±S.E.M. (with an asterisk to denote significance as compared to vehicle treated controls).

[4] = test system: hyperalgesia following incisional surgery; experiment: Established incisional hyperalgesia, dosing 24 hours after surgery; format: in vivo; details: rat; given 24 hours after surgical incision; FIG. 10
[5] = test system: fentanyl analgesia (Hargreaves); experiment: Preservation of fentanyl analgesia in Hargreaves thermal plantar model; format: in vivo; details: rat; compound IV 15 min before fentanyl 25 μg/kg; FIG. 2
[6] = test system: capsaicin-mediated hyperalgesia; experiment: Capsaicin-induced hyperalgesia; format: in vivo; details: rat; IV prior to intra-plantar capsaicin; FIG. 8
[7] = test system: Carrageenan-induced thermal hyperalgesia; experiment: Carrageenan-induced thermal hyperalgesia (Hargreaves); format: in vivo, rat; details: for Paw withdrawal latency: cut-off 40 s, individual animals
[8] = rat, 10 and 30 mg/kg p.o. 15 minutes prior to carrageenan

## CC1(C)SC(Nc2ccccc2O)=N[C@@H]1C(=O)O [Compound 2, (R)-2-(2-hydroxyphenylamino)-thiazoline-5,5-dimethyl-4-carboxylic acid]
[1]
  hyperalgesia caused by SIN-1: inhibits hyperalgesia caused by SIN-1
[2]; 1 hr post-drug, compound 2 10 mg/kg p.o. 3 hrs after carrageenan (curative), FIG. 21B, 10 mg/kg
  Paw volume: 2.6 mL and 2.9 mL and 2.5 mL and 2.7 mL
[2]; 1 hr post-drug, compound 2 30 mg/kg p.o. 3 hrs after carrageenan (curative), FIG. 21B, 30 mg/kg
  Paw volume: 2.4 mL and 2.6 mL and 2.5 mL and 2.9 mL and 2.3 mL
[2]; Pre-Cg, compound 2 10 mg/kg group, individual rats, FIG. 21B, 10 mg/kg
  Paw volume: 1.7 mL (2×) and 1.8 mL (3×) and 1.6 mL
[2]; Pre-Cg, compound 2 30 mg/kg group, individual rats, FIG. 21B, 30 mg/kg
  Paw volume: 1.6 mL (3×) and 1.7 mL (2×) and 1.8 mL and 1.5 mL
[2]; compound 2 10 mg/kg p.o. preemptive, 4 hr post-drug, individual animals, 10 mg/kg
  Paw volume: 3.3 mL and 2.8 mL (2×) and 3.2 mL and 3.1 mL and 2.9 mL
[2]; compound 2 10 mg/kg p.o. preemptive, Pre-Cg, individual animals, 10 mg/kg
  Paw volume: 1.7 mL (2×) and 1.6 mL (3×) and 1.5 mL
[2]; compound 2 30 mg/kg p.o. preemptive, 4 hr post-drug, individual animals, 30 mg/kg
  Paw volume: 2.9 mL and 2.7 mL (4×) and 2.8 mL
[2]; compound 2 30 mg/kg p.o. preemptive, Pre-Cg, individual animals, 30 mg/kg
  Paw volume: 1.7 mL (3×) and 1.6 mL (2×) and 1.8 mL
[2]; [8]
  carrageenan-induced edema, preemptive (finding in words): did not significantly prevent
[2]; rat, p.o. 3 hours post-carrageenan, significant at 30 mg/kg, 30 mg/kg
  carrageenan-induced edema, curative (finding in words): significantly reversed edema
[3]; baseline (prior to FCA)
  Paw withdrawal latency: 16.6 s and 17.55 s and 20.74 s and 20.9 s and 20.6 s and 19.33 s
[3]; day 1, compound 2 25 mg/kg i.v. preemptive, 25 mg/kg
  Paw withdrawal latency: 14.4 s and 156.3 s and 15.1 s (2×) and 15.7 s and 22.7 s
[3]; day 3, compound 2 25 mg/kg i.v. preemptive, 25 mg/kg
  Paw withdrawal latency: 12.5 s and 19.12 s and 19.5 s (2×) and 15.7 s and 17.7 s
[3]; day 4, compound 2 25 mg/kg i.v. preemptive, 25 mg/kg
  Paw withdrawal latency: 14 s and 16.25 s and 16.51 s (2×) and 16.6 s and 18.2 s
[3]; rat, single dose 25 mg/kg i.v. preemptive, significant 72 hours post-FCA, 25 mg/kg
  FCA thermal hyperalgesia (finding in words): prevented the development; also recorded: significantly prevented
Ataxia (rotarod); compound 2 30 mg/kg p.o., Baseline, 30 mg/kg
  Latency to fall: 70 sec and 108.5 sec and 72 sec and 68 sec (2×) and 52 sec and 49 sec and 60.5 sec and 48.5 sec and 47.5 sec (2×) and 97 sec
Ataxia (rotarod); compound 2 30 mg/kg p.o., Post-Drug (1 hr), 30 mg/kg
  Latency to fall: 39 s and 99 s and 72 s and 94 s and 66 s and 81 s and 133 s and 120 s and 56 s and 115 s and 50 s and 70 s
Ataxia (rotarod); compound 2 100 mg/kg p.o., Baseline, 100 mg/kg
  Latency to fall: 43.5 s and 75.5 s and 55 s and 63 s and 60.5 s and 73.5 s and 73 s and 72 s and 54.5 s and 54 s and 46.5 s and 53 s
Ataxia (rotarod); compound 2 100 mg/kg p.o., Post-Drug (1 hr), 100 mg/kg
  Latency to fall: 86 sec and 64 sec and 45 sec (2×) and 111 sec and 91 sec and 221 sec and 72 sec (2×) and 66 sec and 20 sec and 199 sec
Ataxia (rotarod); compound 2 300 mg/kg p.o., Baseline, 300 mg/kg
  Latency to fall: 84 sec and 76.5 sec and 57 sec and 86.5 sec (2×) and 81.5 sec and 79 sec and 71.5 sec and 61 sec and 97.5 sec and 89 sec
Ataxia (rotarod); compound 2 300 mg/kg p.o., Post-Drug (1 hr), 300 mg/kg
  Latency to fall: 184 sec (2×) and 55 sec (2×) and 112 sec and 105 sec and 124 sec and 175 sec and 43 sec and 131 sec and 78 sec
Ataxia (rotarod); rat, 30, 100 and 300 mg/kg p.o., 1 hr post-dosing
  latency to fall, accelerating rotarod (finding in words): did not significantly decrease latency to fall; also recorded: did not significantly reduce latency to fall
[4]
  reversal of hyperalgesia following incisional surgery: reverses hyperalgesia following incisional surgery
[5]
  preservation of fentanyl analgesia, Hargreaves thermal hyperalgesia model: dose-dependently preserves fentanyl analgesia
[6]
  effect on capsaicin-mediated hyperalgesia: inhibits capsaicin-mediated hyperalgesia
[7]; compound 2 10 mg/kg p.o. preemptive (15 minutes prior to carrageenan), baseline prior to carrageenan (first line), 10 mg/kg
  Paw withdrawal latency: 20.94 s and 40 s and 25.09 s and 26.96 s and 13.66 s and 23.25 s
[7]; compound 2 10 mg/kg p.o. preemptive, 4 hours post carrageenan (second line), 10 mg/kg
  Paw withdrawal latency: 8.1 s and 5.07 s and 20.71 s and 12.18 s and 11.94 s and 9.38 s
[7]; compound 2 30 mg/kg p.o. preemptive, 4 hours post carrageenan (second line), 30 mg/kg
  Paw withdrawal latency: 11.57 s and 16.63 s and 6.81 s and 11 s and 32.38 s and 11.6 s
[7]; compound 2 30 mg/kg p.o. preemptive, baseline prior to carrageenan (first line), 30 mg/kg
  Paw withdrawal latency: 27.75 s and 15.78 s and 35.57 s and 23.26 s and 18.37 s and 25.78 s
[7]; [8]
  carrageenan-induced thermal hyperalgesia, preemptive (finding in words): did not significantly prevent
